Laboratory results: patent US5614192A, “T cell receptor peptides as therapeutics for immune-related disease” (Connective Therapeutics, Inc., priority 1993, dated 1997)
Marks after values point to notes of the source that are not given here. Ends that are not written are not given here.

Legend:
[1] = test system: LN cells and T cell lines; assay: Proliferation of LN cells and lines from rats protected by transfer of TCR Vβ8 peptide-specific T cells (Table 15); assay type: cell-based, rat
Experimental: ^1 Lymph node (LN) cells were collected 20 days after simultaneous
^2 LN cells were tested directly (NL column).
^3 T cell lines were selected from these LN cells by culture with TCR

[2] = test system: passive EAE; assay: Treatment of passively induced EAE with TCR Vβ8 peptides (FIGS. 21A, 22); assay type: in vivo, rats
[3] = test system: passive EAE; assay: Transfer of EAE to naive rats by GPBP-selected T cell lines from treated rats; assay type: in vivo
[4] = target: T1, Gp-S53 (Cavia porcellus, UniProt P25188); assay: Direct ELISA, antibody reactivity (Example VII); assay type: binding, guinea pig
T1 construct: Gp-S53 (residues 75-84); made in house; host or cells: chemical solid-phase synthesis

[5] = test system: DTH (ear swelling); assay: DTH to Vβ8.2-39-59 and Vβ8-44-54 in Vβ8-44-54/CFA immunized rats (Table 34); assay type: in vivo; conditions: rats immunized 14 days with Vβ8-44-54/CFA; net
Experimental: Transfer of DTH and protection: Delayed type hypersensitivity reactions were measured by the ear swelling assay (Offner et al., J. Neuroimmunol. 9: 147 (1984)) 24 and 48 h after injection i.d. of 20 μg antigen.
Values represent mean ± S.D. of net ear swelling in 6 immunized rats.

[6] = test system: Vβ8-44-54 reactive T cell clones; assay: Specificity of Vβ8-44-54 reactive T cell clones, proliferation (Table 37); assay type: cell-based, rat
Experimental: Proliferation assays: Proliferation assays were performed in 96-well microtiter plates. 2×10^4 T cells and 10^6 irradiated thymocytes/well were incubated with stimulation medium only, ConA, or antigen at 37C in 7% CO2. The cultures were incubated for 72 h, the last 18 h in the presence of 0.5 Bq ^3 H-Tdr. The cells were harvested onto glass fiber filters and TCR uptake was assessed by liquid scintillation. Mean CPM wre calculated from triplicate wells. The standard deviation from replicate wells varied <10% from the mean values. In some experiments, azide free antibodies to MHC I (OX-18) or MHC II (OX-6, anti-I-A and OX-17, anti-I-E) were added to the cultures to evaluate which MHC molecules were used to restrict the T cell response to TCR Vβ8-44-54 peptide.
Isolation of Vβ8-44-54 reactive T cell clones. To characterize the anti-TCR peptide response on the clonal level, ten clones were isolated and characterized from the initial T cell line. As is shown in Table 37, each of the clones responded strongly to the Vβ8-44-54 peptide with stimulation indices ranging from 10× to 1300×, and weakly or not at all to the Vβ8.2-39-59 or Vβ8.6-39-59 peptides. Three of the four clones challenged with all three of the peptides responded selectively to the consensus Vβ8-44-54 peptide, whereas only one clone (B7) reflected the T cell line pattern of response characterized by response to Vβ8-44-54 >Vβ8.6-39-59 >Vβ8.2-39-59 (Table 37). Loss of viability of the clones precluded individual testing of EAE-protective activity.

[7] = test system: DH reaction; assay: Delayed hypersensitivity (DH) ear swelling to TCR peptide (Example VI); assay type: in vivo, Lewis rats; conditions: to 50 μg TCR Vβ8(39-59) in Vβ8(39-59)-immunized rats
Experimental: The Vβ8(39-59)-immunized rats developed both specific antibodies to the Vβ8(39-59) peptide and a delayed hypersensitivity (DH) response of 0.17 mm ear swelling to 50 μg TCR Vβ8(39-59) peptide.

[8] = test system: DTH (ear thickness); assay: DTH to T cells and TCR peptides after clone transfer or peptide immunization (Table 32); assay type: in vivo, rats; conditions: 50 μg TCR peptide
Experimental: Transfer of DTH and protection: Delayed type hypersensitivity reactions were measured by the ear swelling assay (Offner et al., J. Neuroimmunol. 9: 147)) 24 and 48 h after injection i.d. of 20 μg antigen.
Rats received 5 million activated clone C45569 or clone C5GpBP

[9] = test system: EAE; assay: Prevention, suppression and treatment of EAE with TCR Vβ8-39-59 peptide (Table 25); assay type: in vivo, Lewis rats
[10] = test system: EAE; conditions: rat, in vivo
Experimental: Male Lewis rats (225250 g) were challenged SC with 100 μg TCR

[11] = A. TCR Vβ8 peptide-specific T cell transfer
[12] = peptide/CFA s.q., Day 0, listed as TCR

With “DMGHGLRLIHYSYDVNSTEKG [TCR Vβ8(39-59), 21-amino acid CDR2 peptide of rat TCR Vβ8]” the “Proliferation, GPBP Selected Line” value [1, 11] was 6 cpm × 10^-3, the “Proliferation, TCR Peptide Selected Line” value [1, 11] was 52 cpm × 10^-3 and the “Proliferation, LN” value ([1]; A. rats given 3 × 10^7 TCR Vβ8 peptide-specific T cells + GPBP/CFA, LN cells day 20) was 90 cpm × 10^-3. The “Proliferation, GPBP Selected Line” value ([1]; B. Saline + GPBP/CFA) was 6 cpm × 10^-3, the “Proliferation, LN” value ([1]; B. Saline + GPBP/CFA) was 8 cpm × 10^-3 and the “severity and duration of passively induced EAE” value ([2]; EAE induced by Vβ8.2+ T cell lines specific for BP) was “marked reduction in the severity and duration of EAE”. The “protection from lethal EAE” value ([2]; rat, in vivo) was “protected all of the recipients from lethal EAE”, the “Passive EAE Severity” value ([3]; 10^7 BP/1st line cells from treated rats) was 0 and the “Passive EAE N” value ([3]; 10^7 GPBP activated BP/1st line cells from treated rats i.p. into naive rats) was 0/3. For the same sequence, the “Ability to Transfer EAE” value ([3]; GPBP-selected T cells of rats given TCR peptide ID day 13) was “YES”, the “Theoretical Absorbance against Gp-S53 normalized to 1:40” value ([4]; TCR d. 0, Gp-S49S d. 48, bleed d. 74) was 910 Absorbance (×10^3) and the “Antisera Reactivity Against Gp-S53” value ([4]; TCR day 0, Gp-S(87-99) d. 44, bleed d. 65, 1:320) was 46 Absorbance (×10^3). The “Antisera Reactivity Against Gp-S53” value ([4]; TCR peptide d. 0, Gp-S49S d. 48, bleed d. 74, 1:80) was 455 Absorbance (×10^3), the “Ear Swelling 24 h” value [5] was 36 ± 8 mm/100 and the “Ear Swelling 48 h” value [5] was 41 ± 9 mm/100. For the same sequence, the “Proliferation Response” value ([6]; Clone B3) was 1.1 CPM/1000, the “Proliferation Response” value ([6]; Clone B7) was 3 CPM/1000 and the “Proliferation Response” value ([6]; Clone B11) was 0.7 CPM/1000. The “Proliferation Response” value ([6]; Clone D1) was 0.8 CPM/1000, the “Proliferation Response” value ([6]; Line) was 102 CPM/1000 and the “delayed hypersensitivity (DH) response, ear swelling” value [7] was 0.17 mm. For the same sequence, the “DTH, change in ear thickness 48 h” value ([8]; Immunization None) was 3 ± 1, the “DTH, change in ear thickness 48 h” value ([8]; rats given 5 million C5Gp-BP (Vβ8.2+)) was 6 ± 3 and the “DTH, change in ear thickness 48 h” value ([8]; rats given C455-69) was 17 ± 2. For the same sequence, the “DTH, change in ear thickness 48 h” value ([8]; rats immunized with Vβ8.239-59 peptide/CFA) was 39 ± 9, the “DTH, change in ear thickness 48 h” value ([8]; rats immunized with Vβ8.639-59 peptide/CFA) was 27 ± 4 and the maximum clinical severity ([9]; 50 μg i.d. on day 0, 7 or 11, controls 3.4) was 1.7-1.8. The “duration of EAE” value ([9]; 50 μg i.d. on day 0, 7 or 11, controls 6.6 days) was 3 to 4 days, the EAE/TOTAL ([9]; i.d. in saline, Day 0) was 5/6 and the EAE/TOTAL ([9]; i.d., 10 μg, day of onset) was 6/6. For the same sequence, the “Max Clin. Signs” value ([9]; i.d., 10 μg, day of onset) was 2.8 ± 0.4, the Onset ([9]; i.d., 10 μg, day of onset) was 12 and the Duration ([9]; i.d., 10 μg, day of onset, listed as TCR) was 4.0 ± 0.9 days. The Duration ([9]; i.d., 10 μg, day of onset, listed as TCR peptide) was 4.0 days, the EAE/TOTAL ([9]; i.d., 50 μg, day of onset) was 9/9 and the “Max Clin. Signs” value ([9]; i.d., 50 μg, day of onset) was 2.8 ± 0.3. It also gave an Onset ([9]; i.d., 50 μg, day of onset) of 12, a Duration ([9]; i.d., 50 μg, day of onset, listed as TCR) of 3.1 ± 0.3 days and a Duration ([9]; i.d., 50 μg, day of onset, listed as TCR peptide) of 3.1 days. The Duration ([9]; i.d., Day 0) was 3.0 ± 1.8 days, the “Max Clin. Signs” value ([9]; i.d., Day 0) was 1.8 ± 1.0 and the Onset ([9]; i.d., Day 0) was 15. The Duration ([9]; i.d., Day 7) was 2.0 ± 1.9 days, the EAE/TOTAL ([9]; i.d., Day 7) was 4/6 and the “Max Clin. Signs” value ([9]; i.d., Day 7) was 1.7 ± 1.4. For the same sequence, the Onset ([9]; i.d., Day 7) was 14, the Duration ([9]; i.d., Day before onset) was 2.5 ± 2.1 days and the EAE/TOTAL ([9]; i.d., Day before onset) was 6/8. The “Max Clin. Signs” value ([9]; i.d., Day before onset) was 1.8 ± 1.3, the Onset ([9]; i.d., Day before onset) was 12 and the “rats with onset of EAE completely prevented” value ([9]; injection after GP-MBP challenge but before onset) was 4/19. The “rats with all clinical signs of EAE completely suppressed” value ([9]; injection at the same time as GP-MBP challenge) was 6/19, the Duration ([9]; peptide/CFA s.q., Day 0) was 2.0 days and the EAE/TOTAL ([9]; peptide/CFA s.q., Day 0) was 8/13. The “Max Clin. Signs” value ([9]; peptide/CFA s.q., Day 0) was 1.3, the Onset ([9]; peptide/CFA s.q., Day 0) was 13 and the Duration [9, 12] was 2.0 ± 1.8 days. The “Max Clin. Signs” value [9, 12] was 1.3 ± 1.1, the Duration ([9]; peptide/CFA s.q., Day -40) was 0 ± 0 days and the EAE/TOTAL ([9]; peptide/CFA s.q., Day -40) was “complete protection against clinical EAE”. The “Max Clin. Signs” value ([9]; peptide/CFA s.q., Day -40) was 0 ± 0, the EAE/TOTAL ([9]; peptide/CFA s.q., Day -40, listed as TCR) was 0/20 and the Duration ([9]; peptide/CFA s.q., Day onset) was 3.5 days. The EAE/TOTAL ([9]; peptide/CFA s.q., Day onset) was 20/20, the “Max Clin. Signs” value ([9]; peptide/CFA s.q., Day onset) was 2.3 ± 0.9 and the Onset ([9]; peptide/CFA s.q., Day onset) was 12. The Duration ([9]; peptide/CFA s.q., Day onset, listed as TCR) was 3.5 ± 1.4 days, the Duration ([9]; peptide/CFA, Day 10) was 3.6 ± 0.9 days and the EAE/TOTAL ([9]; peptide/CFA, Day 10) was 5/5. For the same sequence, the “Max Clin. Signs” value ([9]; peptide/CFA, Day 10) was 2.8 ± 0.4, the Onset ([9]; peptide/CFA, Day 10) was 13 and the “Clinical Signs of EAE” value [10] was “None”.
